The source of these data is US10889572B2, “Reactive oxygen species scavengers and use for treating diseases” (XW LABORATORIES INC., priority 2017, dated 2021).

The subject of one assay is 3T3-L1 cells. Briefly: Apoptosis assay (Caspase-Glo 3/7, Actinomycin D induced). Format: cell-based. Conditions: 100 nM Actinomycin D, 48 hours, Caspase-Glo 3/7, 2 hours pre-treatment, read-out: EC50, Inhibition for Apoptosis in 3T3-L1 Cell induced by Actinomycin D. As for the experimental part:
Cell Lines and Media. 3T3-L1 cells were obtained from American Type Culture Collection. Cells were grown in DMEM completed media, 10% FBS, and penicillin-streptomycin mix (Invitrogen). Cells were maintained at 37° C. and 5% CO2 in a tissue culture incubator.
Apoptosis Assay. […] We used this assay to screen our compounds for apoptosis inhibition. Briefly, 40 μL of 3000 3T3-L1 cells were seeded per well in 384 well plates, cells were allowed to adhere overnight. In the next day, prepare the Actinomycin D as the apoptosis inducing agent into 100 μM DMSO stock. Prepare the test compounds into 10 mM DMSO stock. Serial dilute the compound into 10 points by 3-fold dilution with DMSO. Pre-treat the 3T3-L1 cells with test compound by transfer 40 nL of stock of serial concentration in triplicate wells using acoustic fluid transfer, incubate for 2 hours. Then transfer 40 nL of 100 μM of Actinomycin D (final concentration is 100 nM) into designated wells using acoustic fluid transfer. Incubate the assay plates at 37° C., 5% CO2, 95% humidity incubator for 48 hours. For caspase assay, add 20 μL/well of Caspase-Glo>3/7 reagent (Promega) into test wells. Incubate for 30 minutes at room temperature to stabilize the luminescence signal. Read the plate with EnSpire Multimode Plate Reader (PerkinElmer). Calculate the EC50 value using formula equation 201: y−(A+((B−A)/(1+((x/C)^D)))) from the XLFit (Excel add-in software), where
A: Average mean of vehicle samples
B: Average mean of cells treated with 100 nM AcD
Z′ factor was used to describe the screening assay perfonuance. The Z′ factor value was >0.5 in all the test plates which indicated the assay was qualified and the IC50 value was reliable for all tested compounds.

For assay [1], the system named is HT-1080 (fibrosarcoma) cells. Briefly: Primary screening by ferroptosis assay (Erastin-induced, cell viability, CellTiter-Glo). The assay is classed as cell-based. Conditions: HT-1080 cells, % remaining activity, read-out: EC50, Inhibition for Ferroptosis in HT-1080 Cell. How it is done:
Cell Lines and Media: HT-1080 (fibrosarcoma) cells were obtained from American Type Culture Collection. Cells were grown in EMEM media, 10% Heat-Inactivated FBS, and penicillin-streptomycin mix (Invitrogen). Cells were maintained at 37° C. and 5% CO2 in a tissue culture incubator.
Cell Viability Assay: Seed 10,000 cell/well of HT-1080 cells with 195 μL growth media in black and clear bottom 96-well plates (Cat #Corning 3904) and allow cells to adhere overnight. The next day, dilute test compound by 2-fold dilution into 12 points with medium containing 400 μM Erastin. Transfer 5 μL of compounds solution into growth medium in triplicated wells. 30 hours later, add Cell Titer-Glo® Luminescent cell viability assay reagent (Cat #, Promega G8081) to measure HT-1080 cell viability according to the manufacture protocol. Briefly, aspirate 100 μL medium, and add 50 μL CellTiter-Glo® Luminescent reagent to each well and incubated for 30 minutes at room temperature to stabilize the Luminescent signal. Seal the plates and centrifuged for 1 minute at 1,000 rpm to remove bubbles. Shake the plates for 1 minute on an orbital shaker. Read the plate to detect Luminescent signal with EnSpire Multimode Plate Reader (PerkinElmer). The remaining activity % is used to evaluate Erastin induced ferroptosis in HT-1080 cells and expressed as the following formula: % Remaining Activity−100×[(Sample−Backgroundavg)/(Vehicle−Background avg)]
Sample: Readout from the test compound
Vehicle: Readout from the vehicle sample
Background: Readout from the Erastin only treatment
Dose response curve is graphed by using the non-linear regression analysis (formula equation 201) in XLFit (Excel add-in software) for the average % remaining activity from triplicates, and the EC50 values is then calculated. In this anti-ferroptosis assay, ferrostatin-1, and XJB-5-131 are included as reference. The acceptance criteria were set based on historical result, mean±2.58*SD in logarithmic scale, meanwhile Z′>0.5.

Like-named read-outs stand apart in the source and are kept apart here.

With `CC(C)C[C@@H](/C=C/[C@H](Cc1ccccc1)C(=O)N1CCC[C@H]1C(=O)N[C@@H](CCCCNC(=O)OCc1ccccc1)C(=O)NC1CC(C)(C)N(O)C(C)(C)C1)NC(=O)OC(C)(C)C` [Example XXVI, Benzyl N—[(5 S)—5-{[(2S)-1-[(2S,3E,5S)-2-benzyl-5-{[(tert-butoxy)carbonyl]amino}-7-methyloct-3-enoyl]pyrrolidin-2-yl]formamido}-5-[(1-oxyl-2,2,6,6-tetramethylpiperidin-4-yl)carbamoyl]pentyl]carbamate], the EC50 in the assay on 3T3-L1 cells (Mus musculus, 3T3-L1) amounted to 683 nM; in assay [1] (Homo sapiens, HT-1080, 30 h), 140 nM.

As for `COC(=O)[C@H](CCCNC(=O)OC1CC(C)(C)N(O)C(C)(C)C1)NC(=O)[C@@H](NC(=O)[C@@H]1CCCN1C(=O)[C@H](/C=C/[C@H](CC(C)C)NC(=O)OC(C)(C)C)Cc1ccccc1)C(C)C` [Example XXXVIII, (S)—Methyl 2-((S)-2-((S)-1-((2S,5S,E)-2-benzyl-5-((tert-butoxycarbonyl)amino)-7-methyloct-3-enoyl)pyrrolidine-2-carboxamido)-3-methylbutanamido)—5-((((1-oxyl-2,2,6,6-tetramethylpiperidin-4-yl)oxy)carbonyl)amino)pentanoate], the EC50 in the assay on 3T3-L1 cells (Mus musculus, 3T3-L1) was 2650 nM; in assay [1] (Homo sapiens, HT-1080, 30 h), 76 nM.

As to `CC(C)C[C@@H](/C=C/[C@H](Cc1ccccc1)C(=O)N1CCC[C@H]1C(=O)NC(CCCNC(=O)OCc1ccccc1)C(=O)NC1CC(C)(C)N(O)C(C)(C)C1)NC(=O)OC(C)(C)C` (stereo in doubt) [Example V, Benzyl N-[(4R)—4-{[(2S)-1-[(2S,3E,5S)-2-benzyl-5-{[(tert-butoxy)carbonyl]amino}-7-methyloct-3-enoyl]pyrrolidin-2-yl]formamido}-4-[(1-hydroxy-2,2,6,6-tetramethylpiperidin-4-yl)carbamoyl]butyl]carbamate], the EC50 in the assay on 3T3-L1 cells (Mus musculus, 3T3-L1) turned out to be 1310 nM; in assay [1] (Homo sapiens, HT-1080, 30 h), 141 nM.

For `CC(C)C[C@@H](/C=C/[C@H](Cc1ccccc1)C(=O)N1CCC[C@H]1C(=O)N[C@@H](C(=O)N[C@@H](CCCNC(=O)OCc1ccccc1)C(=O)NC1CC(C)(C)N(O)C(C)(C)C1)C(C)C)NC(=O)OCC1CC1` [Example X, Cyclopropylmethyl N-[(4S,5E,7S)-7-benzyl-8-[(2S)—2-{[(1R)—1-{[(1S)—4-{[(benzyloxy)carbonyl]amino}-1-[(1-hydroxy-2,2,6,6-tetramethylpiperidin-4-yl)carbamoyl]butyl]carbamoyl}-2-methylpropyl]carbamoyl}pyrrolidin-1-yl]-2-methyl-8-oxooct-5-en-4-yl]carbamate], the EC50 in the assay with 3T3-L1 cells (Mus musculus, 3T3-L1) turned out to be 1380 nM; in assay [1] (Homo sapiens, 30 hours) it was 285 nM.

Take `CC(C)CC(C=CC(Cc1ccccc1)C(=O)N1CCCC1C(=O)NC(CCCNC(=O)OC1CC(C)(C)N([O])C(C)(C)C1)C(N)=O)NC(=O)OC(C)(C)C` [Example XXVIII, tert-Butyl N-[(4S,5E,7S)-7-benzyl-8-[(2S)—2-{[(1S)-1-carbamoyl-4-({[(1-oxyl-2,2,6,6-tetramethylpiperidin-4-yl)oxy]carbonyl}amino-)butyl]carbamoyl}pyrrolidin-1-yl]-2-methyl-8-oxooct-5-en-4-yl]carbamate]: the figures for the EC50 (in the assay on 3T3-L1 cells; in assay [1] (30 hours)) were 3930 nM and 251 nM, respectively.

`CC(C)C[C@@H](/C=C/[C@H](Cc1ccccc1)C(=O)N1CCC[C@H]1C(=O)N[C@@H](CCCNC(=O)OCc1ccccc1)C(=O)NC1CC(C)(C)N(O)C(C)(C)C1)NC(=O)OC(C)(C)C` [Example IX, Benzyl N-[(4S)—4-{[(2S)-1-[(2S,3E,5S)-2-benzyl-5-{[(tert-butoxy)carbonyl]amino}-7-methyloct-3-enoyl]pyrrolidin-2-yl]formamido}-4-[(1-hydroxy-2,2,6,6-tetramethylpiperidin-4-yl)carbamoyl]butyl]carbamate]: the EC50 in the assay with 3T3-L1 cells (Mus musculus, 3T3-L1) was found to be 1370 nM; in assay [1] (30 hours), 261 nM.

Consider `CC(C)C[C@@H](/C=C/[C@H](Cc1ccccc1)C(=O)N1CCC[C@H]1C(=O)N[C@@H](CCCNC(=O)OC1CC(C)(C)N(O)C(C)(C)C1)C(=O)NC(C)C)NC(=O)OC(C)(C)C` [Example XXXXIV, tert-Butyl N-[(4S,5E,7S)-7-benzyl-8-[(2S)—2-{[(1S)-4-({[(1-oxyl-2,2,6,6-tetramethylpiperidin-4-yl)oxy]carbonyl}amino)-1-[(propan-2-yl)carbamoyl]butyl]carbamoyl}pyrrolidin-1-yl]-2-methyl-8-oxooct-5-en-4-yl]carbamate], for which the EC50 in the assay with 3T3-L1 cells (Mus musculus, 3T3-L1) is 628 nM; in assay [1] (Homo sapiens, HT-1080, 30 h), 140 nM.

Take `CC(C)C[C@@H](/C=C/[C@H](Cc1ccccc1)C(=O)N1CCC[C@H]1C(=O)N[C@@H](C(=O)NC1CC(C)(C)N([O])C(C)(C)C1)C(C)C)NC(=O)OC(C)(C)C` [Example II, tert-Butyl ((4S,7S,E)-7-benzyl-8-((S)-2-(((R)-1-((1-oxyl-2,2,6,6-tetramethylpiperidin-4-yl)amino)-3-methyl-1-oxobutan-2-yl)carbamoyl)pyrrolidin-1-yl)-2-methyl-8-oxooct-5-en-4-yl)carbamate]: the EC50 with 3T3-L1 cells (Mus musculus, 3T3-L1) turned out to be 3040 nM; in assay [1] (Homo sapiens, 30 hours), 289 nM.

Take `CC(C)C[C@@H](/C=C/[C@H](Cc1ccccc1)C(=O)N1CCC[C@H]1C(=O)N[C@@H](CCCNC(=O)OCc1ccccc1)C(=O)NC1CC(C)(C)N(O)C(C)(C)C1)NC(=O)OC(C)(C)C` [Example I, Benzyl N-[(4S)—4-{[(2S)-1-[(2S,3E,5S)-2-Benzyl-5-{[(Tert-Butoxy)Carbonyl]Amino}-7-Methyloct-3-Enoyl]Pyrrolidin-2-Yl]Formamido}-4-[(1-Oxyl-2,2,6,6-Tetramethylpiperidin-4-Yl)Carbamoyl]Butyl]Carbamate]: the figures for the EC50 (in the assay with 3T3-L1 cells; in assay [1] (30 hours)) were 1580 nM and 260 nM, respectively.

For the compound `CC(C)C[C@@H](/C=C/[C@H](Cc1ccccc1)C(=O)N1CCC[C@H]1C(=O)N[C@@H](C(=O)N[C@@H](CCCNC(=O)OCc1ccccc1)C(=O)NC1CC(C)(C)N(O)C(C)(C)C1)C(C)C)NC(=O)OC(C)(C)C` [Example IV], the EC50 in the assay on 3T3-L1 cells (Mus musculus, 3T3-L1) was 1270 nM; in assay [1] (Homo sapiens, 30 hours), 564 nM.

For the compound `CC(C)C[C@@H](/C=C/[C@H](Cc1ccccc1)C(=O)N1CCC[C@H]1C(=O)N[C@@H](CCCNC(=O)OC1CC(C)(C)N(O)C(C)(C)C1)C(=O)OC(C)C)NC(=O)OC(C)(C)C` [Example XXIX, Propan-2-yl (2S)—2-{[(2S)-1-[(2S,3E,5S)-2-benzyl-5-{[(tert-butoxy)carbonyl]amino}-7-methyloct-3-enoyl]pyrrolidin-2-yl]formamido}-5-({[(1-oxyl-2,2,6,6-tetramethylpiperidin-4-yl)oxy]carbonyl}amino)pentanoate], the 50% effective concentration (EC50) with 3T3-L1 cells (Mus musculus, 3T3-L1) turned out to be 4320 nM; in assay [1] (Homo sapiens, HT-1080, 30 h), 73 nM.

`CC(C)C[C@@H](/C=C/[C@H](Cc1ccccc1)C(=O)N1CCC[C@@H]1C(=O)N[C@H](C(=O)N[C@@H](CCCNC(=O)OCc1ccccc1)C(=O)NC1CC(C)(C)N(O)C(C)(C)C1)C(C)C)NC(=O)OC(C)(C)C` [Example VII, Benzyl N-[(4S)-4-[(2S)—2-{[(2R)-1-[(2S,3E,5S)-2-benzyl-5-{[(tert-butoxy)carbonyl]amino}-7-methyloct-3-enoyl]pyrrolidin-2-yl]formamido}-3-methylbutanamido]-4-[(1-hydroxy-2,2,6,6-tetramethylpiperidin-4-yl)carbamoyl]butyl]carbamate]: the EC50 in the assay with 3T3-L1 cells (Mus musculus, 3T3-L1) was found to be 4640 nM; in assay [1] (Homo sapiens, 30 hours), 342 nM.
